Measured values taken from a melting point compilation (Tetko et al.).

Question: Which melting point does the source give for CCC(C)(C)c1ccc(OCC(=O)Nc2cccc(C(=O)Nc3[nH]n(-c4c(Cl)cc(Cl)cc4Cl)c(=O)c3OC(=O)Nc3ccccc3)c2)c(C(C)(C)CC)c1 here?
Answer: Its melting point is 72 to 77 °C.

Question: For CC(C)(C1CCC(OCC(CN2C(C)(C)CC3(CC2(C)C)OCCO3)OC(=O)c2ccccc2)CC1)C1CCC(OCC(CN2C(C)(C)CC3(CC2(C)C)OCCO3)OC(=O)c2ccccc2)CC1 (stereo unspecified), which melting point is on record?
Answer: Its melting point is 77 to 79 °C.

Question: For COC(=O)COc1ccccc1, which melting point is on record?
Answer: The melting point was 85 to 89 °C.

Question: For O=C(c1ccccc1)c1ccc(C(Cl)(Cl)Cl)cc1, which melting point is on record?
Answer: Its melting point is 109 to 111 °C.

Question: With COc1cc(OC)c(/C=C/C(c2ccc(OC)c(NC(=O)C(C)OC(C)=O)c2)S(=O)(=O)C(/C=C/c2c(OC)cc(OC)cc2OC)c2ccc(OC)c(NC(=O)C(C)OC(C)=O)c2)c(OC)c1 (stereo unspecified) as the compound, how does the melting point read?
Answer: The melting point was 179 to 180 °C.

Question: With F[Si](c1ccccc1)(c1ccccc1)c1ccccc1 as the compound, how does the melting point read?
Answer: Its melting point is 64 °C.

Question: Which melting point does the source give for CCc1nc2c(cnn2CC)c(NC2CCOCC2)c1CNC(=O)c1cccc(C(=O)NCc2ccc(C)c(-c3cccc(CN4CCN(C(=O)OC(C)(C)C)C(C)C4)c3)c2)c1 (stereo unspecified) here?
Answer: Its melting point is 115 to 118 °C.

Question: With O=C(OCCCCCCOC1CCCCO1)c1ccc(Oc2c3c(c(Oc4ccc(C(=O)OCCCCCCOC5CCCCO5)cc4)c4ccccc24)C(=O)c2ccccc2C3=O)cc1 (stereo unspecified) as the compound, how does the melting point read?
Answer: The melting point was 114 to 117 °C.

Question: Which melting point does the source give for CCOC(=O)Cc1ccc(-c2nc(COc3ccc(COc4nn(-c5ccccc5)cc4/C=C/c4nc(N5CCN(C(=O)OC(C)(C)C)CC5)sc4C)cc3OC)c(C)o2)cc1 here?
Answer: Its melting point is 112 to 114 °C.

Question: With CC(CC(CC(Sc1cc(C(C)(C)C)c(O)c(C(C)(C)C)c1)Sc1cc(C(C)(C)C)c(O)c(C(C)(C)C)c1)Sc1cc(C(C)(C)C)c(O)c(C(C)(C)C)c1)Sc1cc(C(C)(C)C)c(O)c(C(C)(C)C)c1 (stereo unspecified) as the compound, how does the melting point read?
Answer: Its melting point is 160 to 162 °C.

Question: For CC(C)[C@H](NC(=O)N(C)CCc1ccccn1)C(=O)N[C@@H](Cc1ccccc1)[C@H](O)[C@@H](O)[C@H](Cc1ccccc1)NC(=O)[C@@H](NC(=O)N(C)CCc1ccccn1)C(C)C, which melting point is on record?
Answer: Its melting point is 109 to 111 °C.

Question: Which melting point does the source give for C=CC(=O)NCNC(=O)C=C here?
Answer: Its melting point is 185 °C.

Question: With CC(C)[Si](OC(=O)C(Cc1cc(I)c(Oc2cc(I)c(OCC3CO3)c(I)c2)c(I)c1)NC(=O)OC(C)(C)C)(C(C)C)C(C)C (stereo unspecified) as the compound, how does the melting point read?
Answer: The melting point was 109 °C.

Question: For CCc1nc(OC)c(NC(=O)N2CCN(c3cc(OC)cc(OC)c3)CC2)cc1C(=O)NC(C)C(=O)Nc1cc(CO)cc(Nc2c3ccccc3nc3ccccc23)c1 (stereo unspecified), which melting point is on record?
Answer: The melting point was 231 to 233 °C.

Question: Which melting point does the source give for CCCCCCCCCCCCCCCCCCOC(=O)c1cc(C(C)(C)C)c(O[Si](C)(C)Oc2c(C(C)(C)C)cc(C(=O)OCCCCCCCCCCCCCCCCCC)cc2C(C)(C)C)c(C(C)(C)C)c1 here?
Answer: Its melting point is 68.5 to 69.5 °C.

Question: With CCCCC(CC)COc1cc2c3cc(OCC(CC)CCCC)c(OCC(CC)CCCC)cc3c3c(OC)ccc(OC)c3c2cc1OCC(CC)CCCC (stereo unspecified) as the compound, how does the melting point read?
Answer: Its melting point is 54 to 56 °C.

Question: With CC(=O)Nc1cc(COC2OC(COC(=O)c3ccc(Cl)cc3)C(OC3OC4COC(c5ccccc5)OC4C(OC(C)=O)C3OC(C)=O)C(OC(C)=O)C2OC(C)=O)ccc1Cl (stereo unspecified) as the compound, how does the melting point read?
Answer: The melting point was 114 to 115 °C.

Question: With CC(C)(C)c1cc(-c2cc(C(C)(C)C)cc(C(C)(C)C)c2Op2oc3c(C(C)(C)C)cc(C(C)(C)C)cc3c3cc(C(C)(C)C)cc(C(C)(C)C)c3o2)c(O)c(C(C)(C)C)c1 as the compound, how does the melting point read?
Answer: The melting point was 245 to 250 °C.

Question: For Brc1cc(Br)c(Oc2nc(Oc3c(Br)cc(Br)cc3Br)nc(Oc3c(Br)cc(Br)cc3Br)n2)c(Br)c1, which melting point is on record?
Answer: The melting point was 215 to 218 °C.

Question: For CCCCCCCCCCCCCC(=O)Nc1ccc(Cl)c(NC2=NN(c3c(Cl)cc(Cl)cc3Cl)C(=O)C2Sc2nnnn2-c2cccc(C(=O)O)c2)c1 (stereo unspecified), which melting point is on record?
Answer: Its melting point is 155 to 165 °C.

Question: With CC(C)[C@H](NC(=O)N(C)Cc1csc(N)n1)C(=O)N[C@@H](Cc1ccccc1)[C@H](O)[C@@H](O)[C@H](Cc1ccccc1)NC(=O)[C@@H](NC(=O)N(C)Cc1nccs1)C(C)C as the compound, how does the melting point read?
Answer: Its melting point is 108 to 111 °C.

Question: For CCCCCCc1cc(C=C2C(=O)N(CC(CC)CCCC)C(=O)C(C#N)=C2C)sc1-c1ccc(-c2ccc(-c3sc(-c4ccc(N(c5ccccc5)c5ccccc5)cc4)cc3CCCCCC)s2)s1 (stereo unspecified), which melting point is on record?
Answer: The melting point was 153 to 158 °C.

Question: Which melting point does the source give for O=C(NCC(COC(C(F)(F)F)(C(F)(F)F)C(F)(F)F)(COC(C(F)(F)F)(C(F)(F)F)C(F)(F)F)C(=O)O)OCC1c2ccccc2-c2ccccc21 here?
Answer: The melting point was 104 to 105 °C.

Question: Which melting point does the source give for COc1cc(OC)c(C=CC(c2ccc(OC)c(CC(=O)O)c2)(S(N)(=O)=O)S(=O)(=O)C(C=Cc2c(OC)cc(OC)cc2OC)(c2ccc(OC)c(CC(=O)O)c2)S(N)(=O)=O)c(OC)c1 (stereo unspecified) here?
Answer: The melting point was 180 to 184 °C.

Question: For CCCCCCCCCCCCCCCCCCN(CCCCCCCCCCCCCCCCCC)C(=O)c1cc(NS(=O)(=O)c2ccc(NN)nc2)c2ccccc2c1O, which melting point is on record?
Answer: Its melting point is 96 to 98 °C.

Question: With CC(=O)ON=C(N)c1ccc(CN(CCCCNC(=O)OC(C)(C)C)C(=O)CNC(=O)CN(CCc2ccccc2)S(=O)(=O)c2ccc(Cl)c(C)c2Cl)cc1 as the compound, how does the melting point read?
Answer: The melting point was 100 °C.

Question: For CCC(CC)NC(=O)c1ccc(-c2scc(-c3ccccc3Cl)c2CC(=O)OC)cc1, which melting point is on record?
Answer: Its melting point is 57 to 59 °C.

Question: For CC[C@H](C)CNC(=O)[C@@H](C[C@H](O)[C@H](CC1CCCCC1)NC(=O)[C@H](Cc1cscn1)NC(=O)[C@H](Cc1cccc2ccccc12)NC(=O)CN1CCOCC1)C(C)(C)O, which melting point is on record?
Answer: The melting point was 141 to 143 °C.

Question: For CCC1=C(C#N)c2cc3c(c(O)c2CC1)C(=O)c1c(O)cccc1C3=O, which melting point is on record?
Answer: The melting point was 227 to 228 °C.

Question: For CN1C(=O)C(Br)=C(c2cn(C3OC(COCc4ccccc4)C(OCc4ccccc4)C(OCc4ccccc4)C3OCc3ccccc3)c3ccccc23)C1=O (stereo unspecified), which melting point is on record?
Answer: The melting point was 55 °C.

Question: For CCOCc1nc2c(N)nc3cc(-c4cccnc4)ccc3c2n1CC1CCN(C(=O)C2CCCO2)CC1 (stereo unspecified), which melting point is on record?
Answer: Its melting point is 191 to 192 °C.

Question: With CCCCCCCCCCCCCCCC(=O)OCC(CSCC(NC(=O)OCc1cccc2c1Cc1ccccc1-2)C(=O)OC(C)(C)C)OC(=O)CCCCCCCCCCCCCCC (mixture of isomers) as the compound, how does the melting point read?
Answer: The melting point was 52 to 54 °C.

Question: With CCCCCCCCCCCCOC(CCCCCCCCCCC)CCOC1C(NC(C)=O)C(OCC2OC(C(=O)O)C(NC(=O)CC(O)CCCCCCCCCCC)C(OCCC(O)CCCCCCCCCCC)C2O)OC(CO)C1OP(=O)(O)O (stereo unspecified) as the compound, how does the melting point read?
Answer: The melting point was 179 to 181 °C.

Question: For CCOC(=O)c1cc2cc(OC)cc(NS(=O)(=O)c3cccs3)c2[nH]1, which melting point is on record?
Answer: The melting point was 158 to 159 °C.

Question: For CC(C)C[C@H](NC(=O)[C@H](C)NC(=O)[C@H](C)NC(=O)OC(C)(C)C)C(=O)NCCNc1ccc(NCCNC(=O)[C@H](CC(C)C)NC(=O)[C@H](C)NC(=O)[C@H](C)NC(=O)OC(C)(C)C)c2c1C(=O)c1c(O)ccc(O)c1C2=O, which melting point is on record?
Answer: The melting point was > 220 °C.

Question: For FC(F)(F)C1(CNC2=NCCN2)CCCCC1, which melting point is on record?
Answer: The melting point was 154 to 157 °C.

Question: For CC(CO)Nc1nc(Nc2ccc(S(C)(=O)=NS(=O)(=O)CC[Si](C)(C)C)cc2)ncc1Br (mixture of isomers), which melting point is on record?
Answer: Its melting point is 194 to 197 °C.

Question: With CC(=O)Nc1cc(N2CCN(Cc3ccccc3)CC2)ccc1OCC(=O)N[C@@H](CC(N)=O)C(=O)N[C@@H](Cc1ccccc1)[C@H](O)C(=O)N1CCC[C@H]1C(=O)NC(C)(C)C as the compound, how does the melting point read?
Answer: The melting point was 119 to 127 °C.

Question: With COC(=O)c1ccccc1CN1C(=O)C2(COc3cc4c(cc32)OCO4)c2ccccc21 (stereo unspecified) as the compound, how does the melting point read?
Answer: Its melting point is 166 to 167 °C.

Question: For CC(C)[C@H](NC(=O)N(C)Cc1ccccn1)C(=O)N[C@@H](Cc1ccccc1)[C@H](O)[C@@H](O)[C@H](Cc1ccccc1)NC(=O)[C@@H](NC(=O)N(C)Cc1csc(N)n1)C(C)C, which melting point is on record?
Answer: Its melting point is 97 to 99 °C.

Question: With [C-]#[N+]C1Cc2ccccc2C(=C)c2ccccc21 (stereo unspecified) as the compound, how does the melting point read?
Answer: Its melting point is 96 to 98 °C.
